Data from ChEMBL document CHEMBL1201862, “PubChem BioAssay data set” (2004).
Counter-ions that a name gives are not always drawn. Active and inactive are the calls of the source.

Assays:
Coagulation factor XII = molecular target: T1, Coagulation factor XII (Homo sapiens, UniProt P00748); test: Factor XIIa Dose Response Confirmation from Single Well HTS. [Related pubchem assays (depositor defined):AID701]; type: functional
T1 sequence (P00748 whole entry): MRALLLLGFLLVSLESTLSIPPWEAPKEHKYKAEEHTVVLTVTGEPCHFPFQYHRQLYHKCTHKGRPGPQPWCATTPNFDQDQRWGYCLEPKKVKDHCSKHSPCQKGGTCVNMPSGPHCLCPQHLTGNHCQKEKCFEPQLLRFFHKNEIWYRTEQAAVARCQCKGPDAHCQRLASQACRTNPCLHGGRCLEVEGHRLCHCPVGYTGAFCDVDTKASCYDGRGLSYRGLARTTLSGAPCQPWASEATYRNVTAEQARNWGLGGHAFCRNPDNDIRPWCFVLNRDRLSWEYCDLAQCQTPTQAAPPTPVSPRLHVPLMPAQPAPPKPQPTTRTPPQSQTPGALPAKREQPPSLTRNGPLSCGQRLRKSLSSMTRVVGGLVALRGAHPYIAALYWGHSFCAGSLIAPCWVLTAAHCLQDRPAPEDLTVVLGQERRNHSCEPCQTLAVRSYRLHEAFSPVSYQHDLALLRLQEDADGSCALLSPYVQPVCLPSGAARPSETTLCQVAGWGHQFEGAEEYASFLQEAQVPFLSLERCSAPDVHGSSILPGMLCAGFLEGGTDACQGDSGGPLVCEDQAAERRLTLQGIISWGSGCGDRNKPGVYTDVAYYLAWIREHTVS

Nonstructural protein 1 = Nonstructural protein 1 (Influenza A virus, UniProt Q194T2); type: functional, Influenza A virus (A/California/07/2009(H1N1))
Chain of Nonstructural protein 1 (Q194T2 whole entry): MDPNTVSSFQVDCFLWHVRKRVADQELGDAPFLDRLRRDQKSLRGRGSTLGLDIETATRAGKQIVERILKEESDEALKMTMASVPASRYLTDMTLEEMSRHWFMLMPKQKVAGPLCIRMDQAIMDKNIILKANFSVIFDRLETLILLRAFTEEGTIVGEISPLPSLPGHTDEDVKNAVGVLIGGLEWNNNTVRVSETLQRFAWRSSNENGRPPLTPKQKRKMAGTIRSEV

[1] = Shn3 3'UTR reporter inhibitors, dose response, cell-based, Clone20 osteoblasts, firefly luciferase, cherry-picked (AID 624132); type: functional;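 further: firefly luciferase luminescence from reporter carrying the Shn3 3'UTR in osteoblasts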
Melanocortin receptor 4 = Melanocortin receptor 4 (Homo sapiens, UniProt P32245); type: functional, cell-based;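 further: Cell-based assay with luminescence read-out, confirmatory dose-response testing for agonist activity of biased ligands at MC4R; human U2OS cells with tagged receptor and beta-arrestin; potency of agonists that increase receptor coupling to beta-arrestin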
Chain of Melanocortin receptor 4 (P32245 whole entry): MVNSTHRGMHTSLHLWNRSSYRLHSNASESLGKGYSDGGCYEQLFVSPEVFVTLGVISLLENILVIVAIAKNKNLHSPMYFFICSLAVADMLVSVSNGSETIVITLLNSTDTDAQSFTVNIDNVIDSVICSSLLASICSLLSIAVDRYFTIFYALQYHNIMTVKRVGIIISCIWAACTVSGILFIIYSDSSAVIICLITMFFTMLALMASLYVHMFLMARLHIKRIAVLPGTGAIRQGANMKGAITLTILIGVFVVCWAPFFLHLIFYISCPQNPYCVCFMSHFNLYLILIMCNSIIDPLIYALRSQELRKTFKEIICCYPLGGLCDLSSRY

[2] = HepG2 cell cytotoxicity, dose response, cytotoxicity control for Shn3 inhibitor project, CellTiter-Glo, cherry-picked (AID 624134); type: functional, cell-based
[3] = HepG2 cell cytotoxicity, dose response, cytotoxicity control for non-replicating M. tuberculosis project (AID 489018); type: functional; details: Mycobacterium tuberculosis
[4] = THP-1 cell cytotoxicity, dose response, cytotoxicity control for non-replicating M. tuberculosis project (AID 489025); type: functional
[5] = molecular target: T2, Ubiquitin-conjugating enzyme E2 N (Homo sapiens, UniProt P61088); type: functional;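 further: Dose-response confirmation in a TR-FRET assay detecting UBC13-driven polyubiquitin chain formation, inhibition measured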
T2 sequence (P61088 whole entry): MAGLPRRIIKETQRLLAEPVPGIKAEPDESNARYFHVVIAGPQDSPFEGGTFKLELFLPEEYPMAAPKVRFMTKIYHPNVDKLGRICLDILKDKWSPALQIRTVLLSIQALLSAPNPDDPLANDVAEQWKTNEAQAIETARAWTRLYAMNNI

cells = type: functional
[6] = Vero E6 cell cytotoxicity, dose response, cytotoxicity control for non-replicating M. tuberculosis project, secondary assay (AID 492998); type: functional, VeroE6; details: Vero C1008
Prothrombin = Prothrombin (Bos taurus, UniProt P00735); test: thrombin inhibition, dose response, biochemical, fluorescence polarization, uHTS hits (AID 602369); type: functional
[7] = molecular target: 72 kDa type IV collagenase (Homo sapiens, UniProt P08253); test: Dose Response validation of uHTS RPN11 inhibitor hits using a MMP-2 Fluorescence assay.; type: functional
Chain of 72 kDa type IV collagenase (P08253 whole entry): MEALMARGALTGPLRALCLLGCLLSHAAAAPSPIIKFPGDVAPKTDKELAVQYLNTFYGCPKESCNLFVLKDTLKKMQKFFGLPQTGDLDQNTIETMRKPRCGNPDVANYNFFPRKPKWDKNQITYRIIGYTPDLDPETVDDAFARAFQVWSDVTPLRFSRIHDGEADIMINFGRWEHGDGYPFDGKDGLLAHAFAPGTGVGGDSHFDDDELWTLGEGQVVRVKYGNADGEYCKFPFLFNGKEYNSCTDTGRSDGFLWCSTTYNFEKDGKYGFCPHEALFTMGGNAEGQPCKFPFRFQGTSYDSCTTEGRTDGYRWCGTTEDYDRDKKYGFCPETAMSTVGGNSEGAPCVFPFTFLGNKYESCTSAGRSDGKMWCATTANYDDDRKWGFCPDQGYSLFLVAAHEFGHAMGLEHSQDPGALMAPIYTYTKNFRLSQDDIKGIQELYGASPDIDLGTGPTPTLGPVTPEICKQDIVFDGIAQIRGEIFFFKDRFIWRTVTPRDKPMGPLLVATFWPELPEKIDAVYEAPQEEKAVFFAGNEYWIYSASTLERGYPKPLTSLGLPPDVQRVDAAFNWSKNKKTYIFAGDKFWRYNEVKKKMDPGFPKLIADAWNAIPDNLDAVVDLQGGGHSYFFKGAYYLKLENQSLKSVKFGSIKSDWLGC

[8] = cytotoxicity toward NIH3T3 fibroblasts, dose response, counter-screen, cell-based, ATP luminescence, mouse fibroblasts (AID 2010); type: functional;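 further: cells exposed to compound for about 90 hours before reading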
[9] = molecular target: 26S proteasome non-ATPase regulatory subunit 14 (Homo sapiens, UniProt O00487); test: inhibition of proteasome subunit RPN11 – biochemical, fluorescence polarization, uHTS hits, confirmation (AID 602368); type: functional
Chain of 26S proteasome non-ATPase regulatory subunit 14 (O00487 whole entry): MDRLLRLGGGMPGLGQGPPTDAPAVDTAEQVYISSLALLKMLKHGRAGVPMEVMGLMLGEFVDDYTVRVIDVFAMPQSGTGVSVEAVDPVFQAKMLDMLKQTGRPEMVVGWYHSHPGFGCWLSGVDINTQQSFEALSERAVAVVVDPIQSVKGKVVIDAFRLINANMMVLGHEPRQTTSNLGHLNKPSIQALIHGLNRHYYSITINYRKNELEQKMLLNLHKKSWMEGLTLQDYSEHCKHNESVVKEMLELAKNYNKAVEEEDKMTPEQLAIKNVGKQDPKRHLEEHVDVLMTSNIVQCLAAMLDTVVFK

[10] = inhibitors of intracellular T. cruzi replication, confirmation, NIH3T3 host cells, beta-gal luminescence (AID 2044); type: functional, cell-based;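 further: intracellular parasites grown in NIH/3T3 mouse fibroblasts as host cells; luminescent beta-galactosidase reporter signal from transgenic T. cruzi replicating inside host cells; inhibitors lower the luminescence signal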
BJ [11] = test: cytotoxicity toward Ras-transformed BJeLR fibroblasts, dose response, cell-based, alamar blue fluorescence, cherrypicked samples (AID 2631); type: functional; details: Homo sapiens;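 further: confirmatory dose-response assay in RAS-dependent BJ fibroblasts engineered with TERT, LT and ST, with cytotoxicity read by fluorescence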
[12] = cytotoxicity in HEK-293T cells, dose response, cytotoxicity control for TCR NF-kB inhibitor project, luminescence, T-cell screen hits (AID 489026); type: functional, cell-based;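 further: cells exposed to compound about 14 hours before the viability readout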
[13] = Luminescence Cell-Based Dose Confirmation HTS to Identify Inhibitors of Platelet Dense Granule Release. [Related pubchem assays: 1663 (Primary HTS), 1678 (Summary of Project)]; type: functional
Estrogen receptor beta [14] = molecular target: T3, Estrogen receptor beta (Homo sapiens, UniProt Q92731);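 further: recombinant ER-beta bound to coactivator SRC1 peptide in presence of estradiol agonist; inhibitors block coactivator peptide binding and lower the FRET signal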
T3 sequence (Q92731 whole entry): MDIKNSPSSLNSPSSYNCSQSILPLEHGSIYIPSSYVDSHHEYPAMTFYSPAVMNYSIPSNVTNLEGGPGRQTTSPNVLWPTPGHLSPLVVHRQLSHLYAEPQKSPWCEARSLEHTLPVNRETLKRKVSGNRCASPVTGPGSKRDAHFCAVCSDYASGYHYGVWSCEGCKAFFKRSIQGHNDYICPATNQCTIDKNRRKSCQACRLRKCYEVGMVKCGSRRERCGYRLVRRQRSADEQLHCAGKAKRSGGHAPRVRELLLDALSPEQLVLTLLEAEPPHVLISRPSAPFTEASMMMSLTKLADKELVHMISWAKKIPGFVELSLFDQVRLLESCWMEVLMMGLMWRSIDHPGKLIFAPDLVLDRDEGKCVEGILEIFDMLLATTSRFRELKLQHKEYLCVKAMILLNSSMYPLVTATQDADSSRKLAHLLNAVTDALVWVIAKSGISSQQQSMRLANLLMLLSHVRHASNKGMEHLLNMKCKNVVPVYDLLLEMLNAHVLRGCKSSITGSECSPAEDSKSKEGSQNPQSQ

BJ [15] = test: cytotoxicity toward BJ-TERT-LT-ST fibroblasts, dose response, cell-based, RAS-independent, luminescence (AID 1935); type: functional; details: Homo sapiens;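 further: BJ fibroblasts immortalized with TERT plus LT and ST oncogenes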
[16] = cytotoxicity toward DRD oncogenic fibroblasts, dose response, cell-based, non-viral oncogenic, luminescence (AID 1934); type: functional; details: Homo sapiens
BJ [17] = test: cells; type: functional, cell-based; details: Homo sapiens
BJ [18] = test: cytotoxicity toward BJ-TERT fibroblasts, dose response, cell-based, RAS-independent, luminescence (AID 1933); type: functional; details: Homo sapiens
[19] = molecular target: Luciferin 4-monooxygenase (Photinus pyralis, UniProt P08659); test: firefly luciferase enzyme inhibitors, dose response, biochemical, luminescence (AID 1891)
Chain of Luciferin 4-monooxygenase (P08659 whole entry): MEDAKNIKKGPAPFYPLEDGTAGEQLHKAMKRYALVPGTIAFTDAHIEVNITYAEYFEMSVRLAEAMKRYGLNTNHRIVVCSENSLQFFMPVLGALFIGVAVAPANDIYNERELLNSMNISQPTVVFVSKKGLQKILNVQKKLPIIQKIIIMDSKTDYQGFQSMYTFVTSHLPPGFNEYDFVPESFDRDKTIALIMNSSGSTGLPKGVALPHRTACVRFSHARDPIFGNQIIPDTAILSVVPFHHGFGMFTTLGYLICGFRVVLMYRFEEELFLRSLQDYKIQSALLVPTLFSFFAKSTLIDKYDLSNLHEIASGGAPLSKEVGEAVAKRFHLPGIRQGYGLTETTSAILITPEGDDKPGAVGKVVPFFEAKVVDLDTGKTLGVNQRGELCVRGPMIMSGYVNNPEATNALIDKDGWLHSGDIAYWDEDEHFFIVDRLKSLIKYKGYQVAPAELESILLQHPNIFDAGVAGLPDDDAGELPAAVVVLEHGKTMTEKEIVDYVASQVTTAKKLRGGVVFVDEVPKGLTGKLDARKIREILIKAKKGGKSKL

Estrogen receptor beta [20] = molecular target: T3, Estrogen receptor beta; test: ERβ–SRC-3 coactivator interaction inhibitors, confirmation, orthogonal assay, biochemical, ELISA, streptavidin-HRP readout (AID 1060)
[21] = Luminescence Cell-Based Dose Confirmation HTS to Identify Activators of 5'UTR Stem-Loop Driven Alpha-Synuclein mRNA Translation in H4 Neuroglioblastoma Cells. [Related pubchem assays: 1829 (Project Summary), 1814 (Primary HTS)]; type: functional
[22] = molecular target: Eukaryotic translation initiation factor 4E (Mus musculus, UniProt P63073); test: eIF4E–eIF4G protein interaction inhibitors, dose response, biochemical, TR-FRET (AID 855); type: functional;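 further: potency for disrupting eIF4E binding to eIF4GI seen as loss of FRET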
Chain of Eukaryotic translation initiation factor 4E (P63073 whole entry): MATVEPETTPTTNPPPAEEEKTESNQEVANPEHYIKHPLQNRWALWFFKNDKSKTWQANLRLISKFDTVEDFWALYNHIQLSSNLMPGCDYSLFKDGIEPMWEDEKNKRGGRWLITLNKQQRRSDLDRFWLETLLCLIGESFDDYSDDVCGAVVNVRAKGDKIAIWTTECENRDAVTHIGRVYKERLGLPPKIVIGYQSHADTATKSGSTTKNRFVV

H4 = test: Luminescence Cell-Based Dose Response HTS to Identify Activators of 5'UTR Stem-Loop Driven Prion Protein mRNA Translation in H4 Neuroglioblastoma Cells. [Related pubchem assays: 1829 (Project Summary), 1814 (Primary HTS)]; type: functional; details: Homo sapiens
[23] = molecular target: T4, High affinity choline transporter 1 (Homo sapiens, UniProt Q9GZV3); test: CHT inhibitors, dose response, cell-based, 5-point CRC, membrane potential dye (AID 504840); type: functional
T4 sequence (Q9GZV3 whole entry): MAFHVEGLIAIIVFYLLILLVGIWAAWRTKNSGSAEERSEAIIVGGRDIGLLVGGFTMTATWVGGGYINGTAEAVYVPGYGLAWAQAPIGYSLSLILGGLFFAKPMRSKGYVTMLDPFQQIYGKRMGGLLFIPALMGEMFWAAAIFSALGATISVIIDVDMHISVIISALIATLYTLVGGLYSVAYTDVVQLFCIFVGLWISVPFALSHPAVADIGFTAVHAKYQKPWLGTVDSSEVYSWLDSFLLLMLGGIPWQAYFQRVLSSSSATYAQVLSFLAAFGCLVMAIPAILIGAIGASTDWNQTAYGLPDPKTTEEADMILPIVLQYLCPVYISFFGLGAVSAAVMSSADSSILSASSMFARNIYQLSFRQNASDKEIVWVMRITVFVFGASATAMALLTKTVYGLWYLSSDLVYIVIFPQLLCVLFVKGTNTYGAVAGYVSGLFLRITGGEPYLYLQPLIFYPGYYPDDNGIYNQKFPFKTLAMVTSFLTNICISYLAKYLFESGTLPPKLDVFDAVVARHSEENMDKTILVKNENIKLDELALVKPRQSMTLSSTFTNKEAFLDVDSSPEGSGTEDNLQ

[24] = Luminescence Cell-Based Dose Response HTS to Identify Activators of Luciferase Translation or Activity in H4 […] Cells. [Related pubchem assays: 1829 (Project Summary), 1814 (Primary HTS)]; type: functional
[25] = HEp-2 cell cytotoxicity, dose response, cytotoxicity control for RSV inhibitor project, HTS (AID 2410); type: functional; details: human respiratory syncytial virus
[26] = molecular target: G-protein coupled receptor 55 (Homo sapiens, UniProt Q9Y2T6); test: GPR55 antagonists blocking LPI-driven arrestin recruitment, primary screen, imaging, U2OS, beta-arrestin-GFP, LPI agonist (AID 2013); type: functional;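 further: antagonist potency measured as reduced agonist-driven arrestin aggregation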
Chain of G-protein coupled receptor 55 (Q9Y2T6 whole entry): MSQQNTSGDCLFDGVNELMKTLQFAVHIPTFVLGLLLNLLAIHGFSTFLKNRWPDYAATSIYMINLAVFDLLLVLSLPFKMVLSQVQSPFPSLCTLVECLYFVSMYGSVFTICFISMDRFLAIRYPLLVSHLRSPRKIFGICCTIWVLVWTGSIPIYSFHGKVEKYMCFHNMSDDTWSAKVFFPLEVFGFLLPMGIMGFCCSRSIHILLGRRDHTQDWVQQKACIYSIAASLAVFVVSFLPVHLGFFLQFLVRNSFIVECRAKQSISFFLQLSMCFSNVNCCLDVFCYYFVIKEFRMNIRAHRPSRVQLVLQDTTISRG

[27] = molecular target: Heat shock protein HSP 90-alpha (Homo sapiens, UniProt P07900); type: functional, organism-based
Vero [28] = test: cells; type: functional, cell-based; details: Chlorocebus sabaeus
Vero [29] = test: cells; type: functional; details: Chlorocebus sabaeus
HEK293 = test: inhibitors of LMP1-driven NF-kB reporter, dose response, cell-based, HEK293, luciferase, cherry-pick (AID 588343); type: functional; details: Homo sapiens
[30] = molecular target: T5, Low molecular weight phosphotyrosine protein phosphatase (Homo sapiens, UniProt P24666); type: functional; details: read-out: IC50_Mean;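 further: Dose-response confirmation assay measuring inhibition of LMPTP enzyme activity by fluorescence intensity read-out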
T5 sequence (P24666 whole entry): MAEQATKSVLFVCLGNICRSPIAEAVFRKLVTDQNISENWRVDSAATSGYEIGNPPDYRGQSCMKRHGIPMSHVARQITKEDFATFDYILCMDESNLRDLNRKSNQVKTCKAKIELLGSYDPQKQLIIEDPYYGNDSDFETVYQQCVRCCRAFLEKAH

[31] = control 3'UTR Renilla luciferase suppression, dose response, counter-screen for Shn3 inhibitor project, cell-based, Clone20-Shn3RL, cherry-picked (AID 624133); type: functional
[32] = Fluorescence-based cell-based high throughput dose response assay for inhibitors of the interaction of nucleotide-binding oligomerization domain containing 2 (NOD2) and the receptor-interacting serine-threonine kinase 2 (RIPK2).; type: functional, Homo sapiens; details: Homo sapiens

O=C(c1ccccc1)N1CCCC(c2nc(O)c3nnn(Cc4ccccc4)c3n2)C1 (stereo not given)
IC50 (Coagulation factor XII): > 50 µM (inactive)

CCc1ccc(OCCNc2cc(N3CCNC(C)C3)ccc2[N+](=O)[O-])cc1 (stereo not given)
IC50 (Nonstructural protein 1): 37.4 µM (active) | AC50 [1]: 15.6 µM (active) | EC50 (Melanocortin receptor 4): > 89.2 µM (inactive) | AC50 [2]: 7.97 µM (active) | CC50 [3]: 12.4 µM (active) | CC50 [4]: 12.4 µM (active) | IC50 [5]: > 20 µM (inactive) | IC50 (cells): 24 µM (active) | CC50 [6]: 13.9 µM (active)

Cc1ccc(-c2ccc(/C=C3\SC(N4CCOCC4)=NC3=O)o2)cc1
IC50 (Prothrombin): 7.72 µM (active) | IC50 [7]: > 100 µM (inactive) | EC50 [8]: 17.1 µM (active) | IC50 [9]: 9.69 µM (active) | EC50 [10]: 655 nM (active)

c1ccc(-c2noc(-c3ccc4c(c3)OCO4)n2)nc1
EC50 (BJ [11]): > 133 µM (inactive) | IC50 [12]: > 80 µM (inactive) | EC50 [13]: 1.1 µM (active) | IC50 (Estrogen receptor beta [14]): 37.8 µM (not active) | EC50 (BJ [15]): 6.29 µM (inconclusive) | EC50 [16]: 1.67 µM (active) | EC50 (BJ [17]): 1.47 µM (active) | EC50 (BJ [18]): 2.1 µM (inconclusive) | EC50 [19]: 105 nM (active) | IC50 (Estrogen receptor beta [20]): > 109 µM (not active)

O=C(OCC(=O)c1c[nH]c2ccccc12)c1cccc(O)c1
EC50 [21]: 5.16 µM (active) | IC50 [22]: > 64 µM (inactive) | EC50 (H4): 8.02 µM (active) | IC50 [23]: 15.8 µM (active) | EC50 [24]: 12.3 µM (active)

O=C(Nc1nc2n(n1)C(c1ccc(Cl)cc1)CC(c1ccc(Cl)cc1)N2)c1ccco1 (stereo not given)
CC50 [25]: 12.8 µM (active) | IC50 (Coagulation factor XII): > 50 µM (inactive)

CC(=O)c1ccc(OC(=O)c2ccc(Br)o2)cc1
IC50 (Coagulation factor XII): 18.5 µM (active)

CCc1ccc(C(=O)NC(=S)Nc2ccccc2N2CCOCC2)cc1
IC50 [26]: 1.2 µM (active)

CCOC(=O)c1cnc2c(c(C)nn2C)c1Oc1ccc(Cl)cc1
IC50 [26]: 3.54 µM (active)

CC(=NNc1nc2ccccc2s1)c1ncccn1
AC50 [27]: 1.61 µM (active) | IC50 (Vero [28]): > 25 µM (active) | IC50 (Nonstructural protein 1): 5.05 µM (active) | CC50 (Vero [29]): 9.06 µM (active) | AC50 (HEK293): 14 µM (active)

O=C(NCc1ccccn1)c1cn(CCc2ccccc2)nn1
IC50 (Coagulation factor XII): > 50 µM (inactive)

CCN(C(C)=O)c1cnc(C=NNC(N)=S)c2ccccc12
IC50 (Nonstructural protein 1): 6.69 µM (active)

CC(C1SC(=S)NC1=O)C1SC(=S)NC1=O (stereo not given)
IC50 [30]: 80 µM (inactive) | IC50 (Prothrombin): 52.4 µM (active) | IC50 [7]: > 100 µM (inactive) | IC50 [9]: 45.4 µM (active)

CCN(CC)CCN1C(=O)/C(=C\c2ccc(Cl)c([N+](=O)[O-])c2)S/C1=N\c1ccc(OC)cc1
EC50 (BJ [11]): 0.537 µM (active) | AC50 [1]: 2.11 µM (active) | AC50 [2]: 16.8 µM (active) | EC50 (BJ [15]): 1.65 µM (active) | AC50 [31]: 10.4 µM (active) | EC50 [16]: 2.86 µM (active) | CC50 (Vero [29]): 15.7 µM (active) | EC50 (BJ [17]): 4.01 µM (active) | EC50 (BJ [18]): 2.1 µM (active) | IC50 [32]: 2.75 µM (active)

CC1(C)CC(=O)C(/C=N/CC2CCN(C(=O)Cc3ccccc3)CC2)=C(O)C1
IC50 (Prothrombin): > 100 µM (inactive) | IC50 [7]: > 100 µM (inactive) | IC50 [9]: > 100 µM (inactive)

OC(CCCN1CCCCC1)(c1ccccc1)c1ccccc1 [DIPHENIDOL HYDROCHLORIDE]
AC50 (HEK293): 323 µM (active)
